According to US11753407B2, “Compounds for treating spinal muscular atrophy” (PTC Therapeutics, Inc., priority 2012, dated 2023):

Columns and labels:
[1] = test system: Smn protein in SMA patient fibroblast cells (GM03813); assay: Smn protein assay in cultured cells (SMN HTRF); type: cell-based, human; details: SMA patient fibroblast cells, 48 hours; for EC1.5x for Smn protein expression: 7-point concentration curve, SMN HTRF, concentration producing 1.5 times Smn protein vs DMSO vehicle control; for maximum fold (Fold) increase of Smn protein: 7-point concentration data, fold relative to vehicle control
Procedure, shortened: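 Fibroblasts, SMA patient; 5,000 cells/well; 7-pt curve, 3.16-fold serial dilution; 48 h, 37 °C, 5% CO2; RIPA lysis 1 h RT; anti-SMN d2 + kryptate overnight RT; HTRF 665/620 nm; fold vs DMSO; EC1.5×, max fold.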

[2] = test system: SMN2 minigene mRNA (SMN2-A minigene) in HEK293H cells; assay: SMN2 minigene mRNA splicing RT-qPCR assay in cultured cells; type: cell-based, human; details: Homo sapiens, HEK293-H; concentration increasing full length SMN2 mRNA 1.5-fold relative to vehicle-treated cells; HEK293H cells with SMN2-A minigene, 24 hours, 7-point concentration data; read-out: EC1.5x for production of full length SMN2 mRNA
Procedure, shortened: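 Stable SMN2-A minigene HEK293H; cpd 7-pt 3.16-fold series, 200× in DMSO, 24 h, 37 °C, n=2. Lysates → multiplex RT-qPCR (minigene FL + GAPDH), efficiency-corrected ΔΔCt vs vehicle. EC1.5× = 1.5-fold FL mRNA gain.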

## Cn1cc2cc(-c3cc(=O)n4cc(N5CCN(CCO)CC5)ncc4n3)ccc2n1 [Compound 591, 7-[4-(2-hydroxyethyl)piperazin-1-yl]-2-(2-methyl-2H-indazol-5-yl)-4H-pyrazino[1,2-a]pyrimidin-4-one]
[1]
  EC1.5x for Smn protein expression: ** (an EC1.5× between >1 μM and ≤3 μM is indicated by two stars (**))
  maximum fold (Fold) increase of Smn protein: **** (a fold increase between >1.5 and ≤1.65 is indicated by four stars (****))
other
  melting point: 200 to 202 °C
[2]
  EC (1.5-fold increase): 0.3 to 1 µM

## Cc1cn2cc(-c3cc(=O)n4cc(C5CCN(C)CC5)ncc4n3)cc(C)c2n1 [Compound 592, 2-(2,8-dimethylimidazo[1,2-a]pyridin-6-yl)-7-(1-methylpiperidin-4-yl)-4H-pyrazino[1,2-a]pyrimidin-4-one]
[1]
  EC1.5x for Smn protein expression: *** (an EC1.5× between >0.3 μM and ≤1 μM is indicated by three stars (***))
  maximum fold (Fold) increase of Smn protein: ***** (a fold increase >1.65 is indicated by five stars (*****))
other
  melting point: 249 to 251 °C
[2]
  EC (1.5-fold increase): 0.1 to 0.3 µM

## CCN1CCC(c2cn3c(=O)cc(-c4cc(C)c5nc(C)cn5c4)nc3cn2)CC1 [Compound 593, 2-(2,8-dimethylimidazo[1,2-a]pyridin-6-yl)-7-(1-ethylpiperidin-4-yl)-4H-pyrazino[1,2-a]pyrimidin-4-one]
[1]
  EC1.5x for Smn protein expression: **** (an EC1.5x≤0.3 μM is indicated by four stars (****))
  maximum fold (Fold) increase of Smn protein: ***** (a fold increase >1.65 is indicated by five stars (*****))
other
  melting point: 242 to 244 °C
[2]
  EC (1.5-fold increase): < 0.1 µM

## Cc1cn2cc(-c3cc(=O)n4cc(C5CCN(CCO)CC5)ncc4n3)cc(C)c2n1 [Compound 594, 2-(2,8-dimethylimidazo[1,2-a]pyridin-6-yl)-7-[1-(2-hydroxyethyl)piperidin-4-yl]-4H-pyrazino[1,2-a]pyrimidin-4-one]
[1]
  EC1.5x for Smn protein expression: *** (an EC1.5× between >0.3 μM and ≤1 μM is indicated by three stars (***))
  maximum fold (Fold) increase of Smn protein: **** (a fold increase between >1.5 and ≤1.65 is indicated by four stars (****))
other
  melting point: 242 to 244 °C
[2]
  EC (1.5-fold increase): 0.1 to 0.3 µM

## Cc1cn2cc(-c3cc(=O)n4cc(C5CCN(C(C)C)CC5)ncc4n3)cc(Cl)c2n1 [Compound 595, 2-(8-chloro-2-methylimidazo[1,2-a]pyridin-6-yl)-7-[1-(propan-2-yl)piperidin-4-yl]-4H-pyrazino[1,2-a]pyrimidin-4-one]
[1]
  EC1.5x for Smn protein expression: **** (an EC1.5x≤0.3 μM is indicated by four stars (****))
  maximum fold (Fold) increase of Smn protein: **** (a fold increase between >1.5 and ≤1.65 is indicated by four stars (****))
other
  melting point: 243 to 245 °C
[2]
  EC (1.5-fold increase): < 0.1 µM

## CCNC1CCN(c2cc(C)c3nc(-c4cc5c(C)nc(C)cn5n4)cc(=O)n3c2)CC1 [Compound 596, 2-(4,6-dimethylpyrazolo[1,5-a]pyrazin-2-yl)-7-[4-(ethylamino)piperidin-1-yl]-9-methyl-4H-pyrido[1,2-a]pyrimidin-4-one]
[1]
  EC1.5x for Smn protein expression: **** (an EC1.5x≤0.3 μM is indicated by four stars (****))
  maximum fold (Fold) increase of Smn protein: **** (a fold increase between >1.5 and ≤1.65 is indicated by four stars (****))
other
  melting point: 228 to 236 °C
[2]
  EC (1.5-fold increase): < 0.1 µM

## Cc1cn2nc(-c3cc(=O)n4cc(N5CCC(N(CCO)CCO)CC5)cc(C)c4n3)cc2c(C)n1 [Compound 597, 7-{4-[bis(2-hydroxyethyl)amino]piperidin-1-yl}-2-(4,6-dimethylpyrazolo[1,5-a]pyrazin-2-yl)-9-methyl-4H-pyrido[1,2-a]pyrimidin-4-one]
[1]
  EC1.5x for Smn protein expression: *** (an EC1.5× between >0.3 μM and ≤1 μM is indicated by three stars (***))
  maximum fold (Fold) increase of Smn protein: **** (a fold increase between >1.5 and ≤1.65 is indicated by four stars (****))
other
  melting point: 218 to 227 °C
[2]
  EC (1.5-fold increase): 0.1 to 0.3 µM

## Cc1nc2ccc(-c3cc(=O)n4nc(C5CCN(CCO)CC5)ccc4n3)cc2o1 [Compound 598, 7-[1-(2-hydroxyethyl)piperidin-4-yl]-2-(2-methyl-1,3-benzoxazol-6-yl)-4H-pyrimido[1,2-b]pyridazin-4-one]
[1]
  EC1.5x for Smn protein expression: *** (an EC1.5× between >0.3 μM and ≤1 μM is indicated by three stars (***))
  maximum fold (Fold) increase of Smn protein: ***** (a fold increase >1.65 is indicated by five stars (*****))
other
  melting point: 205 to 207 °C
[2]
  EC (1.5-fold increase): 0.1 to 0.3 µM

## Cc1cn2cc(-c3cc(=O)n4cc(C5CCN(CCO)CC5)ncc4n3)cc(Cl)c2n1 [Compound 599, 2-(8-chloro-2-methylimidazo[1,2-a]pyridin-6-yl)-7-[1-(2-hydroxyethyl)piperidin-4-yl]-4H-pyrazino[1,2-a]pyrimidin-4-one]
[1]
  EC1.5x for Smn protein expression: **** (an EC1.5x≤0.3 μM is indicated by four stars (****))
  maximum fold (Fold) increase of Smn protein: ***** (a fold increase >1.65 is indicated by five stars (*****))
other
  melting point: 266 to 268 °C
[2]
  EC (1.5-fold increase): < 0.1 µM

## Cc1cn2nc(-c3cc(=O)n4cc(C5CCN(C6COC6)CC5)ccc4n3)cc2c(C)n1 [Compound 600, 2-(4,6-dimethylpyrazolo[1,5-a]pyrazin-2-yl)-7-[1-(oxetan-3-yl)piperidin-4-yl]-4H-pyrido[1,2-a]pyrimidin-4-one]
[1]
  EC1.5x for Smn protein expression: ** (an EC1.5× between >1 μM and ≤3 μM is indicated by two stars (**))
  maximum fold (Fold) increase of Smn protein: **** (a fold increase between >1.5 and ≤1.65 is indicated by four stars (****))
other
  melting point: 150 to 152 °C
[2]
  EC (1.5-fold increase): 0.1 to 0.3 µM

## CCN1CCN(c2ccc3nc(-c4cc5cc(C)nc(C)c5o4)cc(=O)n3c2)CC1 [Compound 601, 2-(5,7-dimethylfuro[2,3-c]pyridin-2-yl)-7-(4-ethylpiperazin-1-yl)-4H-pyrido[1,2-a]pyrimidin-4-one]
[1]
  EC1.5x for Smn protein expression: *** (an EC1.5× between >0.3 μM and ≤1 μM is indicated by three stars (***))
  maximum fold (Fold) increase of Smn protein: **** (a fold increase between >1.5 and ≤1.65 is indicated by four stars (****))
other
  melting point: 202 to 204 °C
[2]
  EC (1.5-fold increase): < 0.1 µM

## Cc1cn2nc(-c3cc(=O)n4cc(N5CCC6C(CCN6C)C5)ccc4n3)cc2c(C)n1 (centres unmarked) [Compound 602, 2-(4,6-dimethylpyrazolo[1,5-a]pyrazin-2-yl)-7-(1-methyloctahydro-5H-pyrrolo[3,2-c]pyridin-5-yl)-4H-pyrido[1,2-a]pyrimidin-4-one]
[1]
  EC1.5x for Smn protein expression: **** (an EC1.5x≤0.3 μM is indicated by four stars (****))
  maximum fold (Fold) increase of Smn protein: **** (a fold increase between >1.5 and ≤1.65 is indicated by four stars (****))
other
  melting point: 210 to 212 °C
[2]
  EC (1.5-fold increase): < 0.1 µM

## CCN1CCC(c2ccc3nc(-c4ccc5c(cnn5C)c4)cc(=O)n3c2)CC1 [Compound 604, 7-(1-ethylpiperidin-4-yl)-2-(1-methyl-1H-indazol-5-yl)-4H-pyrido[1,2-a]pyrimidin-4-one]
[1]
  EC1.5x for Smn protein expression: **** (an EC1.5x≤0.3 μM is indicated by four stars (****))
  maximum fold (Fold) increase of Smn protein: ***** (a fold increase >1.65 is indicated by five stars (*****))
other
  melting point: 184 to 186 °C
[2]
  EC (1.5-fold increase): 0.3 to 1 µM

## Cn1ncc2cc(-c3cc(=O)n4cc(C5CCN(CCO)CC5)ccc4n3)ccc21 [Compound 605, 7-[1-(2-hydroxyethyl)piperidin-4-yl]-2-(1-methyl-1H-indazol-5-yl)-4H-pyrido[1,2-a]pyrimidin-4-one]
[1]
  EC1.5x for Smn protein expression: *** (an EC1.5× between >0.3 μM and ≤1 μM is indicated by three stars (***))
  maximum fold (Fold) increase of Smn protein: ***** (a fold increase >1.65 is indicated by five stars (*****))
other
  melting point: 204 to 206 °C
[2]
  EC (1.5-fold increase): 0.3 to 1 µM

## Cn1cc2cc(-c3cc(=O)n4cc(C5CCNCC5)ccc4n3)ccc2n1 [Compound 606, 2-(2-methyl-2H-indazol-5-yl)-7-(piperidin-4-yl)-4H-pyrido[1,2-a]pyrimidin-4-one]
[1]
  EC1.5x for Smn protein expression: ** (an EC1.5× between >1 μM and ≤3 μM is indicated by two stars (**))
  maximum fold (Fold) increase of Smn protein: **** (a fold increase between >1.5 and ≤1.65 is indicated by four stars (****))
other
  melting point: 194 to 196 °C
[2]
  EC (1.5-fold increase): < 0.1 µM

## Cc1cn2cc(-c3cc(=O)n4cc(C5CCNCC5)ccc4n3)cc(C)c2n1 [Compound 607, 2-(2,8-dimethylimidazo[1,2-a]pyridin-6-yl)-7-(piperidin-4-yl)-4H-pyrido[1,2-a]pyrimidin-4-one]
[1]
  EC1.5x for Smn protein expression: **** (an EC1.5x≤0.3 μM is indicated by four stars (****))
  maximum fold (Fold) increase of Smn protein: ***** (a fold increase >1.65 is indicated by five stars (*****))
other
  melting point: 282 to 284 °C
[2]
  EC (1.5-fold increase): < 0.1 µM

## Cc1cn2nc(-c3cc(=O)n4cc(N5CCC(NCCO)CC5)cc(C)c4n3)cc2c(C)n1 [Compound 609, 2-(4,6-dimethylpyrazolo[1,5-a]pyrazin-2-yl)-7-{4-[(2-hydroxyethyl)amino]piperidin-1-yl}-9-methyl-4H-pyrido[1,2-a]pyrimidin-4-one]
[1]
  EC1.5x for Smn protein expression: **** (an EC1.5x≤0.3 μM is indicated by four stars (****))
  maximum fold (Fold) increase of Smn protein: ***** (a fold increase >1.65 is indicated by five stars (*****))
other
  melting point: 221 to 232 °C
[2]
  EC (1.5-fold increase): < 0.1 µM
